Measurements reported in US5763404A, “Methods for using LHRH antagonists with low histamine release” (priority 1995, dated 1998).
Starred links: 1 amine or outer side, 2 acyl side, 3 side chain; linkers in the order of their positions; H or OH if unused. Non-standard residues stand in square brackets, D forms with d. Residues, ends and D or L forms follow the SMILES beside them. *: point of attachment. dAla(cis-4-NHCOPyz-cHex) = N[C@H](C[C@H]1CC[C@@H](NC(=O)c2cnccn2)CC1)C(=O)O; X4 = O=C(N[C@H]1CC[C@@H](C[C@@H](N[*:1])C(=O)[*:2])CC1)c1cccnc1; X2 = O=C(N[C@H]1CC[C@@H](C[C@H](N[*:1])C(=O)[*:2])CC1)c1cnccn1; dPhe(4-Cl) = N[C@H](Cc1ccc(Cl)cc1)C(=O)O; d2Nal = N[C@H](Cc1ccc2ccccc2c1)C(=O)O; Picolinoyl(6-Me) = Cc1cccc(C(=O)*)n1; Lys(iPr) = CC(C)NCCCC[C@H](N)C(=O)O; Orn(iPr) = CC(C)NCCC[C@H](N)C(=O)O; Pyrazinecarbonyl = O=C(c1cnccn1)*; aIle = CC[C@@H](C)[C@H](N)C(=O)O; 3Pal = N[C@@H](Cc1cccnc1)C(=O)O; d3Pal = N[C@H](Cc1cccnc1)C(=O)O; Nicotinoyl = O=C(c1cccnc1)*; Picolinoyl = O=C(c1ccccn1)*

Tested on: anaesthesized rats
Assay: wheal test, intradermal injection
Type: in vivo, rat
Parameters: Wheal (wheal response): unit not given here
Conditions: for Wheal Area / Wheal: 10 ug peptide intradermally; for Wheal (wheal response): Table XIV and text, unit not given; for Wheal: Table I
Method in brief: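 Anaesthetized rats given intradermal injection of 10 ug peptide in 100 ul saline; area of the wheal calculated from its diameter.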

| Structure (SMILES) | Wheal Area | Wheal (wheal response) | Wheal |
| --- | --- | --- | --- |
| CC[C@@H](C)[C@H](NC(=O)[C@@H](CCCCNC(=O)c1ccccn1)NC(=O)[C@H](CCCCNC(=O)c1ccccn1)NC(=O)[C@H](CO)NC(=O)[C@@H](Cc1cccnc1)NC(=O)[C@@H](Cc1ccc(Cl)cc1)NC(=O)[C@@H](Cc1ccc2ccccc2c1)NC(C)=O)C(=O)N[C@@H](CCCCNC(C)C)C(=O)N1CCC[C@H]1C(=O)N[C@H](C)C(N)=O [IBR 25936] (Ac-[d2Nal][dPhe(4-Cl)][d3Pal]SK(Picolinoyl)[dK](Picolinoyl)[aIle][Lys(iPr)]P[dA]-NH2) | – | 97.9±2.9 | – |
| CC(=O)N[C@H](Cc1ccc2ccccc2c1)C(=O)N[C@H](Cc1ccc(Cl)cc1)C(=O)N[C@H](Cc1cccnc1)C(=O)N[C@@H](CO)C(=O)N[C@@H](Cc1ccc(O)cc1)C(=O)N[C@H](CCCCNC(=O)c1cccnc1)C(=O)N[C@@H](CC(C)C)C(=O)N[C@@H](CCCCN)C(=O)N1CCC[C@H]1C(=O)N[C@H](C)C(N)=O [compound 24825] (Ac-[d2Nal][dPhe(4-Cl)][d3Pal]SY[dK](Nicotinoyl)LKP[dA]-NH2) | – | – | 119.5 ± 3.2 mm^2 /10 |
| CC(=O)N[C@H](Cc1ccc2ccccc2c1)C(=O)N[C@H](Cc1ccc(Cl)cc1)C(=O)N[C@H](Cc1cccnc1)C(=O)N[C@@H](CO)C(=O)N[C@@H](Cc1ccc(O)cc1)C(=O)N[C@H](CCCNC(=N)N)C(=O)N[C@@H](CC(C)C)C(=O)N[C@@H](CCCCNC(=O)c1cccnc1)C(=O)N1CCC[C@H]1C(=O)N[C@H](C)C(N)=O [compound 24749] (Ac-[d2Nal][dPhe(4-Cl)][d3Pal]SY[dR]LK(Nicotinoyl)P[dA]-NH2) | – | – | 136.3 mm^2 /10 |
| CC(=O)N[C@H](Cc1ccc2ccccc2c1)C(=O)N[C@H](Cc1ccc(Cl)cc1)C(=O)N[C@H](Cc1cccnc1)C(=O)N[C@@H](CO)C(=O)N[C@@H](CCCCNC(=O)c1cccnc1)C(=O)N[C@H](C[C@H]1CC[C@@H](NC(=O)c2cccnc2)CC1)C(=O)N[C@@H](CC(C)C)C(=O)N[C@@H](CCCCNC(C)C)C(=O)N1CCC[C@H]1C(=O)N[C@H](C)C(N)=O [IBR 25648] (Ac-[d2Nal][dPhe(4-Cl)][d3Pal]SK(Nicotinoyl)[X4]L[Lys(iPr)]P[dA]-NH2) | 101.8 ± 4.3 mm^2 /10 μg | – | – |
| CC(=O)N[C@H](Cc1ccc2ccccc2c1)C(=O)N[C@H](Cc1ccc(Cl)cc1)C(=O)N[C@H](Cc1cccnc1)C(=O)N[C@@H](CO)C(=O)N[C@@H](Cc1ccc(O)cc1)C(=O)N[C@H](CCCCNC(=O)c1cccnc1)C(=O)N[C@@H](CC(C)C)C(=O)N[C@@H](CCCCNC(C)C)C(=O)N1CCC[C@H]1C(=O)N[C@H](C)C(N)=O [compound 24315] (Ac-[d2Nal][dPhe(4-Cl)][d3Pal]SY[dK](Nicotinoyl)L[Lys(iPr)]P[dA]-NH2) | – | – | 79.0 ± 9.2 mm^2 /10 |
| CC(=O)N[C@H](Cc1ccc2ccccc2c1)C(=O)N[C@H](Cc1ccc(Cl)cc1)C(=O)N[C@H](CCCCNC(=O)c1cccnc1)C(=O)N[C@@H](CO)C(=O)N[C@@H](Cc1ccc(O)cc1)C(=O)N[C@H](CCCCNC(=O)c1cccnc1)C(=O)N[C@@H](CC(C)C)C(=O)N[C@@H](CCCNC(=N)N)C(=O)N1CCC[C@H]1C(=O)N[C@H](C)C(N)=O [compound 24597] (Ac-[d2Nal][dPhe(4-Cl)][dK](Nicotinoyl)SY[dK](Nicotinoyl)LRP[dA]-NH2) | – | – | 101.0 mm^2 /10 |
| CC(=O)N[C@H](Cc1ccc2ccccc2c1)C(=O)N[C@H](Cc1ccc(Cl)cc1)C(=O)N[C@H](Cc1cccnc1)C(=O)N[C@@H](CO)C(=O)N[C@@H](Cc1ccc(O)cc1)C(=O)N[C@H](CCCCNC(=O)c1cccnc1)C(=O)N[C@@H](CC(C)C)C(=O)N[C@@H](CCCCNC(=O)c1cccnc1)C(=O)N1CCC[C@H]1C(=O)N[C@H](C)C(N)=O [compound 24540] (Ac-[d2Nal][dPhe(4-Cl)][d3Pal]SY[dK](Nicotinoyl)LK(Nicotinoyl)P[dA]-NH2) | – | – | 82.6 ± 2.8 mm^2 /10 |
| CC(=O)N[C@H](Cc1ccc2ccccc2c1)C(=O)N[C@H](Cc1ccc(Cl)cc1)C(=O)N[C@H](Cc1cccnc1)C(=O)N[C@@H](CO)C(=O)N[C@@H](Cc1cccnc1)C(=O)N[C@H](CCCCNC(=O)c1cccnc1)C(=O)N[C@@H](CC(C)C)C(=O)N[C@@H](CCCCNC(C)C)C(=O)N1CCC[C@H]1C(=O)N[C@H](C)C(N)=O [compound 25383] (Ac-[d2Nal][dPhe(4-Cl)][d3Pal]S[3Pal][dK](Nicotinoyl)L[Lys(iPr)]P[dA]-NH2) | – | – | 132.8 mm^2 /10 |
| CC(=O)N[C@H](Cc1ccc2ccccc2c1)C(=O)N[C@H](Cc1ccc(Cl)cc1)C(=O)N[C@H](Cc1cccnc1)C(=O)N[C@@H](CO)C(=O)N[C@@H](CCCCNC(=O)c1cnccn1)C(=O)N[C@H](CCCCNC(=O)c1cnccn1)C(=O)N[C@@H](CC(C)C)C(=O)N[C@@H](CCCCNC(C)C)C(=O)N1CCC[C@H]1C(=O)N[C@H](C)C(N)=O [compound 25650] (Ac-[d2Nal][dPhe(4-Cl)][d3Pal]SK(Pyrazinecarbonyl)[dK](Pyrazinecarbonyl)L[Lys(iPr)]P[dA]-NH2) | – | – | 110.2 mm^2 /10 |
| CC(=O)N[C@H](Cc1ccc2ccccc2c1)C(=O)N[C@H](Cc1ccc(Cl)cc1)C(=O)N[C@H](Cc1cccnc1)C(=O)N[C@@H](CO)C(=O)N[C@@H](CCCCNC(=O)c1cccnc1)C(=O)N[C@H](CCCCNC(=O)c1cccnc1)C(=O)N[C@@H](CC(C)C)C(=O)N[C@@H](CCCNC(C)C)C(=O)N1CCC[C@H]1C(=O)N[C@H](C)C(N)=O [compound 24933] (Ac-[d2Nal][dPhe(4-Cl)][d3Pal]SK(Nicotinoyl)[dK](Nicotinoyl)L[Orn(iPr)]P[dA]-NH2) | – | – | 136.0 mm^2 /10 |
| CC(=O)N[C@H](Cc1ccc2ccccc2c1)C(=O)N[C@H](Cc1ccc(Cl)cc1)C(=O)N[C@H](Cc1cccnc1)C(=O)N[C@@H](CO)C(=O)N[C@@H](CCCNC(=N)N)C(=O)N[C@H](Cc1cccnc1)C(=O)N[C@@H](CC(C)C)C(=O)N[C@@H](CCCCNC(=O)c1cccnc1)C(=O)N1CCC[C@H]1C(=O)N[C@H](C)C(N)=O [compound 24771] (Ac-[d2Nal][dPhe(4-Cl)][d3Pal]SR[d3Pal]LK(Nicotinoyl)P[dA]-NH2) | – | – | 99.0 ± 10.3 mm^2 /10 |
| CC[C@H](C)[C@H](NC(=O)[C@H](CO)NC(=O)[C@@H](Cc1cccnc1)NC(=O)[C@@H](Cc1ccc(Cl)cc1)NC(=O)[C@@H](Cc1ccc2ccccc2c1)NC(C)=O)C(=O)N[C@H](CCCCNC(=O)c1cccnc1)C(=O)N[C@@H](CC(C)C)C(=O)N[C@@H](CCCNC(C)C)C(=O)N1CCC[C@H]1C(=O)N[C@H](C)C(N)=O [compound 25145] (Ac-[d2Nal][dPhe(4-Cl)][d3Pal]SI[dK](Nicotinoyl)L[Orn(iPr)]P[dA]-NH2) | – | – | 116.5 mm^2 /10 |

More lines, now with the values ahead:

| Wheal Area | Wheal (wheal response) | Wheal | Structure (SMILES) |
| --- | --- | --- | --- |
| 97.9 ± 2.9 mm^2 /10 μg | – | – | CC[C@@H](C)[C@H](NC(=O)[C@@H](CCCCNC(=O)c1ccccn1)NC(=O)[C@H](CCCCNC(=O)c1ccccn1)NC(=O)[C@H](CO)NC(=O)[C@@H](Cc1cccnc1)NC(=O)[C@@H](Cc1ccc(Cl)cc1)NC(=O)[C@@H](Cc1ccc2ccccc2c1)NC(C)=O)C(=O)N[C@@H](CCCCNC(C)C)C(=O)N1CCC[C@H]1C(=O)N[C@H](C)C(N)=O [compound 25936] (Ac-[d2Nal][dPhe(4-Cl)][d3Pal]SK(Picolinoyl)[dK](Picolinoyl)[aIle][Lys(iPr)]P[dA]-NH2) |
| 115.5 ± 2.4 mm^2 /10 μg | 115.5 ± 2.4 | – | CC(=O)N[C@H](Cc1ccc2ccccc2c1)C(=O)N[C@H](Cc1ccc(Cl)cc1)C(=O)N[C@H](Cc1cccnc1)C(=O)N[C@@H](CO)C(=O)N[C@@H](C[C@H]1CC[C@@H](NC(=O)c2cnccn2)CC1)C(=O)N[C@H](C[C@H]1CC[C@@H](NC(=O)c2cnccn2)CC1)C(=O)N[C@@H](CC(C)C)C(=O)N[C@@H](CCCCNC(C)C)C(=O)N1CCC[C@H]1C(=O)N[C@H](C)C(N)=O [compound 26326] (Ac-[d2Nal][dPhe(4-Cl)][d3Pal]S[X2][dAla(cis-4-NHCOPyz-cHex)]L[Lys(iPr)]P[dA]-NH2) |
| 95.0 ± 0 mm^2 /10 μg | – | – | CC(=O)N[C@H](Cc1ccc2ccccc2c1)C(=O)N[C@H](Cc1ccc(Cl)cc1)C(=O)N[C@H](Cc1cccnc1)C(=O)N[C@@H](CO)C(=O)N[C@@H](Cc1ccc(O)cc1)C(=O)N[C@H](C[C@H]1CC[C@@H](NC(=O)c2cnccn2)CC1)C(=O)N[C@@H](CC(C)C)C(=O)N[C@@H](CCCCNC(C)C)C(=O)N1CCC[C@H]1C(=O)N[C@H](C)C(N)=O [compound 26418] (Ac-[d2Nal][dPhe(4-Cl)][d3Pal]SY[dAla(cis-4-NHCOPyz-cHex)]L[Lys(iPr)]P[dA]-NH2) |
| 78.6 ± 4.5 mm^2 /10 μg | – | – | CC[C@@H](C)[C@H](NC(=O)[C@@H](CCCCNC(=O)c1ccccn1)NC(=O)[C@H](CCCCNC(=O)c1ccccn1)NC(=O)[C@H](CO)NC(=O)[C@@H](Cc1cccnc1)NC(=O)[C@@H](Cc1ccc(Cl)cc1)NC(=O)[C@@H](Cc1ccc2ccccc2c1)NC(C)=O)C(=O)N[C@@H](CCCNC(C)C)C(=O)N1CCC[C@H]1C(=O)N[C@H](C)C(N)=O [compound 26178] (Ac-[d2Nal][dPhe(4-Cl)][d3Pal]SK(Picolinoyl)[dK](Picolinoyl)[aIle][Orn(iPr)]P[dA]-NH2) |
| 78.5 ± 0 mm^2 /10 μg | – | – | CC(=O)N[C@H](Cc1ccc2ccccc2c1)C(=O)N[C@H](Cc1ccc(Cl)cc1)C(=O)N[C@H](Cc1cccnc1)C(=O)N[C@@H](CO)C(=O)N[C@@H](CCCCNC(=O)c1ccccn1)C(=O)N[C@H](CCCCNC(=O)c1ccccn1)C(=O)N[C@@H](Cc1c[nH]c2ccccc12)C(=O)N[C@@H](CCCCNC(C)C)C(=O)N1CCC[C@H]1C(=O)N[C@H](C)C(N)=O [compound 25935] (Ac-[d2Nal][dPhe(4-Cl)][d3Pal]SK(Picolinoyl)[dK](Picolinoyl)W[Lys(iPr)]P[dA]-NH2) |
| 106.2 ± 4.3 mm^2 /10 μg | – | – | CC(=O)N[C@H](Cc1ccc2ccccc2c1)C(=O)N[C@H](Cc1ccc(Cl)cc1)C(=O)N[C@H](Cc1cccnc1)C(=O)N[C@@H](CO)C(=O)N[C@@H](CCCCNC(=O)c1cccc(C)n1)C(=O)N[C@H](CCCCNC(=O)c1cccc(C)n1)C(=O)N[C@@H](CC(C)C)C(=O)N[C@@H](CCCCNC(C)C)C(=O)N1CCC[C@H]1C(=O)N[C@H](C)C(N)=O [compound 25808] (Ac-[d2Nal][dPhe(4-Cl)][d3Pal]SK(Picolinoyl(6-Me))[dK](Picolinoyl(6-Me))L[Lys(iPr)]P[dA]-NH2) |
